Experiments:
human orexin-2 receptor = target: T1, human orexin-2 receptor (Homo sapiens, UniProt O43614); experiment: Intracellular calcium measurements (FLIPR), orexin receptor antagonistic activity, OX2; type: cell-based; details: CHO cells expressing the human orexin-2 receptor; 10 nM orexin-A as agonist
T1 construct: expressed in transfected cells; host or cells: CHO cells (G418 selection)
T1 sequence (O43614 1-444): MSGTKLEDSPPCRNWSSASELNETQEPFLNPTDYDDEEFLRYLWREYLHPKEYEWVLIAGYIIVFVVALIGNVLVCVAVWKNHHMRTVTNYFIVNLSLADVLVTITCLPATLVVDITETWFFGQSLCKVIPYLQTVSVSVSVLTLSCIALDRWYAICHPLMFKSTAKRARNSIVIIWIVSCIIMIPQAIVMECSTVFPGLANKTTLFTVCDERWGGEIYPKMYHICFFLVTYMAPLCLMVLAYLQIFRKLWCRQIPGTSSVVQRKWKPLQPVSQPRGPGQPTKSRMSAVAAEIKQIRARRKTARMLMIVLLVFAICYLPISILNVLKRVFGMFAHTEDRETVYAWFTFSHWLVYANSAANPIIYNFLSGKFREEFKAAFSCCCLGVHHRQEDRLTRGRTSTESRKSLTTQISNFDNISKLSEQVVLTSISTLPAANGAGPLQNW
Description: (§1) The orexin receptor antagonistic activity of the compounds of formula (I) is determined in accordance with the following experimental method.
(§2) Intracellular Calcium Measurements:
(§3) Chinese hamster ovary (CHO) cells expressing the human orexin-1 receptor and the human orexin-2 receptor, respectively, are grown in culture medium (Ham F-12 with L-Glutamine) containing 300 μg/ml G418, 100 U/ml penicillin, 100 μg/ml streptomycin and 10% inactivated fetal calf serum (FCS). The cells are seeded at 80,000 cells/well into 96-well black clear bottom sterile plates (Costar) which have been precoated with 1% gelatine in Hanks' Balanced Salt Solution (HBSS). All reagents are from Gibco BRL. The seeded plates are incubated overnight at 37° C. in 5% CO2.
(§4) Human orexin-A as an agonist is prepared as 1 mM stock solution in methanol:water (1:1), diluted in HBSS containing 0.1% bovine serum albumin (BSA) and 2 mM HEPES for use in the assay at a final concentration of 10 nM.
(§5) Antagonists are prepared as 10 mM stock solution in DMSO, then diluted in 96-well plates, first in DMSO, then in HBSS containing 0.1% bovine serum albumin (BSA) and 2 mM HEPES.
(§6) On the day of the assay, 100 μl of loading medium (HBSS containing 1% FCS, 2 mM HEPES, 5 mM probenecid (Sigma) and 3 μM of the fluorescent calcium indicator fluo-3 AM (1 mM stock solution in DMSO with 10% pluronic acid) (Molecular Probes) is added to each well.
(§7) The 96-well plates are incubated for 60 min at 37° C. in 5% CO2. The loading solution is then aspirated and cells are washed 3 times with 200 μl HBSS containing 2.5 mM probenecid, 0.1% BSA, 2 mM HEPES. 100 μl of that same buffer is left in each well.
(§8) Within the Fluorescent Imaging Plate Reader (FLIPR, Molecular Devices), antagonists are added to the plate in a volume of 50 μl, incubated for 20 min and finally 100 μl of agonist is added. Fluorescence is measured for each well at 1 second intervals, and the height of each fluorescence peak is compared to the height of the fluorescence peak induced by 10 nM orexin-A with buffer in place of antagonist. For each antagonist, IC50 value (the concentration of compound needed to inhibit 50% of the agonistic response) is determined. Antagonistic activities of compounds are in the nanomolar range below 1000 nM with respect to the OX1 and/or the OX2 receptor.

human orexin-1 receptor = target: T2, human orexin-1 receptor (Homo sapiens, UniProt O43613); experiment: Intracellular calcium measurements (FLIPR), orexin receptor antagonistic activity, OX1; type: cell-based; details: CHO cells expressing the human orexin-1 receptor; 10 nM orexin-A as agonist
T2 construct: expressed in transfected cells; host or cells: CHO cells (G418 selection)
T2 sequence (O43613 1-425): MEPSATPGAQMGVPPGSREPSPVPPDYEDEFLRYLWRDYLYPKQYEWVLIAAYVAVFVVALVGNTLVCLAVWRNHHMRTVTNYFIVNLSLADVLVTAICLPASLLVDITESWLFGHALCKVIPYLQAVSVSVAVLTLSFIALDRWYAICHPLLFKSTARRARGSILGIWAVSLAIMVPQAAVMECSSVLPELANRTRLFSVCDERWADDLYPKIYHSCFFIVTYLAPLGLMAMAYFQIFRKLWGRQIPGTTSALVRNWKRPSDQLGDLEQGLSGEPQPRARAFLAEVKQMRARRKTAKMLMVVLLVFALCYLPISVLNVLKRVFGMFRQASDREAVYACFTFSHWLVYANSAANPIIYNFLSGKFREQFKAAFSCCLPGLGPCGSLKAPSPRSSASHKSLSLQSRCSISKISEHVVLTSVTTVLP
Description: as §1, §2, §3, §4, §5, §6, §7
as §8, with “determined.” for “determined. Antagonistic activities of compounds are in the nanomolar range below 1000 nM with respect to the OX1 and/or the OX2 receptor.”

SMILES	IC50 (human orexin-2 receptor) [nM]	IC50 (human orexin-1 receptor) [nM]
Cc1nc(C(=O)N2CSC[C@H]2CNC(=O)c2nn(C)c3ccccc23)c(-c2ccc(F)cc2)s1 [Example 4, 1-Methyl-1H-indazole-3-carboxylic acid {(R)-3-[5-(4-fluoro-phenyl)-2-methyl-thiazole-4-carbonyl]-thiazolidin-4-ylmethyl}-amide]	8	
COc1cccc(-c2sc(C)nc2C(=O)N2CSC[C@H]2CNC(=O)c2cccc3occc23)c1 [Example 11, Benzofuran-4-carboxylic acid {(R)-3-[5-(3-methoxy-phenyl)-2-methyl-thiazole-4-carbonyl]-thiazolidin-4-ylmethyl}-amide]	1	1
Cc1nc(C(=O)N2CSC[C@H]2CNC(=O)c2c(C)nc3sccn23)c(-c2cccc(F)c2)s1 [Example 31, 6-Methyl-imidazo[2,1-b]thiazole-5-carboxylic acid {(R)-3-[5-(3-fluoro-phenyl)-2-methyl-thiazole-4-carbonyl]-thiazolidin-4-ylmethyl}-amide]	7	6
Cc1nc(C(=O)N2CSC[C@H]2CNC(=O)c2c(C)nc3sccn23)c(-c2cccc(C(F)(F)F)c2)o1 [Example 38, 6-Methyl-imidazo[2,1-b]thiazole-5-carboxylic acid {(R)-3-[2-methyl-5-(3-trifluoromethyl-phenyl)-oxazole-4-carbonyl]-thiazolidin-4-ylmethyl}-amide]	80	59
Cc1ccc(-c2nc(C)sc2C(=O)N2CSC[C@H]2CNC(=O)c2c(C)nc3sccn23)cc1 [Example 41, 6-Methyl-imidazo[2,1-b]thiazole-5-carboxylic acid [(R)-3-(2-methyl-4-p-tolyl-thiazole-5-carbonyl)-thiazolidin-4-ylmethyl]-amide]	11	7
O=C(NC[C@@H]1CSCN1C(=O)c1ccccc1-c1ccccc1)c1cccc2occc12 [Example 79, Benzofuran-4-carboxylic acid [(R)-3-(biphenyl-2-carbonyl)-thiazolidin-4-ylmethyl]-amide]	9	23
Cn1nc(C(=O)NC[C@@H]2CSCN2C(=O)c2ccccc2-c2ccccc2)c2ccccc21 [Example 83, 1-Methyl-1H-indazole-3-carboxylic acid [(R)-3-(biphenyl-2-carbonyl)-thiazolidin-4-ylmethyl]-amide]	6	6
Cc1nc(C(=O)N2CSC[C@H]2CNC(=O)c2cc3ccccc3s2)c(-c2ccc(F)cc2)s1 [Example 91, Benzo[b]thiophene-2-carboxylic acid {(R)-3-[5-(4-fluoro-phenyl)-2-methyl-thiazole-4-carbonyl]-thiazolidin-4-ylmethyl}-amide]	22	5950
Cc1nc(C(=O)N2CSC[C@H]2CNC(=O)c2c(C)nc3ccccn23)c(-c2ccc(F)cc2)s1 [Example 110, 2-Methyl-imidazo[1,2-a]pyridine-3-carboxylic acid {(R)-3-[5-(4-fluoro-phenyl)-2-methyl-thiazole-4-carbonyl]-thiazolidin-4-ylmethyl}-amide]	804	99
Cc1nc(C(=O)N2CSC[C@H]2CNC(=O)c2cccc3c2NCCO3)c(-c2ccc(F)cc2)s1 [Example 112, 3,4-Dihydro-2H-benzo[1,4]oxazine-5-carboxylic acid {(R)-3-[5-(4-fluoro-phenyl)-2-methyl-thiazole-4-carbonyl]-thiazolidin-4-ylmethyl}-amide]	17	6
Cc1cccc(-c2sc(C)nc2C(=O)N2CSC[C@H]2CNC(=O)c2cccc3ncoc23)c1 [Example 119, Benzooxazole-7-carboxylic acid [(R)-3-(2-methyl-5-m-tolyl-thiazole-4-carbonyl)-thiazolidin-4-ylmethyl]-amide]	3	2
Cc1cccc(-c2sc(C)nc2C(=O)N2CSC[C@H]2CNC(=O)c2ccc(F)c3occc23)c1 [Example 127, 7-Fluoro-benzofuran-4-carboxylic acid [(R)-3-(2-methyl-5-m-tolyl-thiazole-4-carbonyl)-thiazolidin-4-ylmethyl]-amide]	1	2
Cc1nc(C(=O)N2CSC[C@H]2CNC(=O)c2c(C)cn3ccsc23)c(-c2ccc(F)cc2)s1 [Example 132, 6-Methyl-pyrrolo[2,1-b]thiazole-7-carboxylic acid {(R)-3-[5-(4-fluoro-phenyl)-2-methyl-thiazole-4-carbonyl]-thiazolidin-4-ylmethyl}-amide]	6	5
COC1Cc2c(C(=O)NC[C@@H]3CSCN3C(=O)c3nc(C)sc3-c3cccc(C)c3)ccc(Cl)c2O1 (stereo partly drawn) [Example 133, 7-Chloro-2-methoxy-2,3-dihydro-benzofuran-4-carboxylic acid [(R)-3-(2-methyl-5-m-tolyl-thiazole-4-carbonyl)-thiazolidin-4-ylmethyl]-amide]	3	8
Cc1cccc(-c2sc(C)nc2C(=O)N2CSC[C@H]2CNC(=O)c2ccc(C(F)(F)F)c3occc23)c1 [Example 141, 7-Trifluoromethyl-benzofuran-4-carboxylic acid [(R)-3-(2-methyl-5-m-tolyl-thiazole-4-carbonyl)-thiazolidin-4-ylmethyl]-amide]	4	10
Cc1cccc(-c2sc(C)nc2C(=O)N2CSC[C@H]2CNC(=O)c2cccc3oc(CO)cc23)c1 [Example 147, 2-Hydroxymethyl-benzofuran-4-carboxylic acid [(R)-3-(2-methyl-5-m-tolyl-thiazole-4-carbonyl)-thiazolidin-4-ylmethyl]-amide]	10	9

From patent publication US8236964B2, “Thiazolidine derivatives as orexin receptor antagonists” (Actelion Pharmaceuticals Ltd., priority 2007, dated 2012)
